Calls of active or inactive are those of the source. The calls are words filed in the database; no cut-off is given here.
Columns and labels:
[1] = Cytotoxicity against human HeLaC3 cells by LDH release assay; type: cell-based; details: hela c3
IMR-32 = experiment: Destabilization of microtubule-associated protein tau protein in human IMR32 cells assessed as reduction in tau protein level at 50 to 250 uM; type: cell-based
HeLa-C3 = experiment: Destabilization of microtubule-associated protein tau protein in human HeLa-C3 cells assessed as reduction in tau protein level at 50 to 250 uM; type: cell-based
Mus musculus = species: Mus musculus; experiment: Destabilization of microtubule-associated protein tau protein in mouse brain slice assessed as reduction in tau protein level at 50 to 250 uM; type: tissue-based
[2] = Cytotoxicity against human IMR32 cells by LDH release assay; type: cell-based; details: imr-32

Structure (SMILES): COc1c2cc(c(O)c1OC)CCCC[C@H](O)CCc1ccc(O)c-2c1
- Activity [1]: Non-toxic
- Activity (IMR-32): Active
- Activity (HeLa-C3): Active
- Activity (Mus musculus): Active
- Activity [2]: Non-toxic

Source: ChEMBL document CHEMBL1667732, “The diarylheptanoid (+)-aR,11S-myricanol and two flavones from bayberry (Myrica cerifera) destabilize the microtubule-associated protein tau” (J Nat Prod, 2011)
